Test results taken from US9913921B2, “Pretargeting kit for imaging or therapy comprising a trans-cyclooctene dienophile and a diene” (TAGWORKS PHARMACEUTICALS B.V., priority 2011, dated 2018).

Assays:
[1] = Reactivity of tetrazines towards trans-cyclooct-4-ene-1-ol (minor isomer), competition experiment; details: reference 3-(5-acetamido-2-pyridyl)-6-(2-pyridyl)-1,2,4,5-tetrazine
Procedure: A competition experiment was performed to determine the reactivity ratio of a specific tetrazine and 3-(5-acetamido-2-pyridyl)-6-(2-pyridyl)-1,2,4,5-tetrazine (that was chosen as the reference tetrazine), in the inverse-electron demand Diels-Alder reaction with trans-cyclooct-4-ene-1-ol (minor isomer).
To acetonitrile (0.100 mL) was added 5 μL of a solution of the specific tetrazine in DMSO (25 mM) and 5 μL, of a solution of the reference tetrazine in DMSO (25 mM). This mixture was diluted with water (0.9 mL), and the absolute amounts of both tetrazines was determined by HPLC-MS/PDA analysis. Subsequently, a solution of trans-cyclooct-4-ene-1-ol (minor isomer) in DMSO (25 μL, 2.5 mM) was slowly added, and the mixture was stirred for 5 min. Again, the absolute amounts of both tetrazines was determined by HPLC-MS/PDA analysis, and conversions for both tetrazines was calculated. From these conversions, the reactivity ratio (R=k2,TCO/k2,Ref) of both tetrazines was calculated using the mathematical procedure from Ingold and Shaw (J. Chem. Soc., 1927, 2918-2926).

[2] = Hydrolytic stability tests of tetrazines; assay type: physicochemical; details: PBS buffer, 20° C.
[3] = Reactivity of trans-cyclooctene derivatives towards bis(2-pyridyl)-1,2,4,5-tetrazine, competition experiment; details: for reactivity towards tetrazines compared to minor isomer of trans-cyclooct-4-ene-1-ol: in words; for Reactivity ratio (R = k2,TCO/k2,Ref): reference trans-cyclooct-4-ene-1-ol (minor isomer)
Procedure: A competition experiment was performed to determine the reactivity ratio of a specific trans-cyclooctene derivative and trans-cyclooct-4-ene-1-ol (minor isomer) (that was chosen as the reference trans-cyclooctene), in the inverse-electron demand Diels-Alder reaction with bis(2-pyridyl)-1,2,4,5-tetrazine.
This mixture was diluted with water (0.45 mL). Subsequently, a solution of bis(2-pyridyl)-1,2,4,5-tetrazine (6.25*10^−8 mol) in a mixture of acetonitrile (0.05 mL) and water (0.45 mL) was slowly added while stirring vigorously. After addition, the mixture was stirred for an additional 5 min. The conversion of both trans-cyclooctene derivatives was determined by HPLC-MS/PDA analysis, and from these conversions, the reactivity ratio (R=k2,TCO/k2,Ref) of the specific trans-cyclooctene derivative was calculated using the mathematical procedure from Ingold and Shaw (J. Chem. Soc., 1927, 2918-2926).

[4] = Stability of trans-cyclooctene derivatives; assay type: physicochemical; details: PBS buffer, 20° C., in the dark, estimation
Procedure: 10 μL of a solution of the specific trans-cyclooctene derivative in dioxane (25 mM) was diluted with PBS buffer (3 mL), and this solution was stored at 20° C. in the dark. The faith of the TCO compound was monitored by HPLC-MS analysis, and an estimation of the half-life time was made.

[5] = Reaction of trans-cyclooctene β-lactam derivative with tetrazine; details: equimolar (6.25*10^−8 mol) in water, immediate discoloration, HPLC-MS
Procedure: To a solution of 3-(5-acetamido-2-pyridyl)-6-(2-pyridyl)-1,2,4,5-tetrazine (6.25*10^−8 mol) in water (1 mL) was added the trans-cyclooctene β-lactam derivative 25 (6.25*10^−8 mol). […] This was confirmed by HPLC-MS analysis: complete disappearance of the tetrazine signal and formation of the rDA adduct with m/z=475.33 (M+H^+).

[6] = as above; details: tetrazine suspension in water
Procedure: To a suspension of 3,6-diphenyl-1,2,4,5-tetrazine (6.25*10^−8 mol) in water (1 mL) was added the trans-cyclooctene β-lactam derivative 25 (6.25*10^−8 mol). […] This was confirmed by HPLC-MS analysis: complete disappearance of the tetrazine signal and formation of the rDA adduct with m/z=416.42 (M+H^+).

[7] = as above; details: equimolar (6.25*10^−8 mol) in water, immediate discoloration, HPLC-MS; remark: listed apart in the source
Procedure: To a solution of (4-(1,2,4,5-tetrazin-3-yl)phenyl)methanamine (6.25*10^−8 mol) in water (1 mL) was added the trans-cyclooctene β-lactam derivative 25 (6.25*10^−8 mol). […] This was confirmed by HPLC-MS analysis: complete disappearance of the tetrazine signal and formation of the rDA adduct with m/z=369.17 (M+H^+).

[8] = as above; details: equimolar (6.25*10^−8 mol) in water, immediate discoloration, HPLC-MS; remark: listed apart in the source
Procedure: To a solution of 3-(5-butyramido-2-pyridyl)-6-(2-pyrimidyl)-1,2,4,5-tetrazine (6.25*10^−8 mol) in water (1 mL) was added the trans-cyclooctene β-lactam derivative 25 (6.25*10^−8 mol). […] This was confirmed by HPLC-MS analysis: complete disappearance of the tetrazine signal and formation of the rDA adduct with m/z=504.42 (M+H^+).

[9] = as above; details: equimolar (6.25*10^−8 mol) in water, immediate discoloration, HPLC-MS; remark: listed apart in the source

c1cnc(-c2nnc(-c3ncccn3)nn2)nc1
Reactivity ratio (R = k2,TZ/k2,Ref) [1]: 0.12
half-life at 83 µM [2]: 4.5 h

O=C(O)C1C2CC/C=C/CCC21 (stereo not drawn) [compound 4, (E-endo)-Bicyclo[6.1.0]non-4-ene-9-carboxylic acid]
reactivity towards tetrazines compared to minor isomer of trans-cyclooct-4-ene-1-ol [3]: markedly increased reactivity
Reactivity ratio (R = k2,TCO/k2,Ref) ([3]; listed as drawing 42): 13.1
half-life at 83 µM [4]: > 72 h

O=C(O)C1C2CC/C=C/CCC21 (stereo not drawn) [compound 5, (E-exo)-Bicyclo[6.1.0]non-4-ene-9-carboxylic acid]
reactivity towards tetrazines compared to minor isomer of trans-cyclooct-4-ene-1-ol [3]: markedly increased reactivity
Reactivity ratio (R = k2,TCO/k2,Ref) ([3]; listed as drawing 43): 20.0

O=C(O)CN1C(=O)C2CC/C=C/CCC21 (stereo not shown) [compound 25, (E)-2-(10-oxo-9-azabicyclo[6.2.0]dec-4-en-9-yl)acetic acid]
reaction with tetrazine [5]: quantitative reaction
reactivity towards tetrazines compared to minor isomer of trans-cyclooct-4-ene-1-ol [3]: markedly increased reactivity
Reactivity ratio (R = k2,TCO/k2,Ref) [3]: 5.4
reaction with tetrazine ([6]; equimolar (6.25*10^−8 mol), HPLC-MS): quantitative reaction
time until pink, turbid mixture became clear and colorless [6]: ≤ 15 min
reaction with tetrazine [7]: quantitative reaction
reaction with tetrazine [8]: quantitative reaction
half-life at 83 µM [4]: ~24 h
reaction with tetrazine [9]: quantitative reaction

O=C1N[C@H]2CC/C=C/CC[C@H]2N1 [compound 40, Cis (E)-3,3a,4,5,9,9a-hexahydro-1H-cycloocta[d]imidazol-2(8H)-one]
reactivity towards tetrazines compared to minor isomer of trans-cyclooct-4-ene-1-ol [3]: markedly increased reactivity
Reactivity ratio (R = k2,TCO/k2,Ref) [3]: 7.3
half-life at 83 µM [4]: > 72 h
